pKi: −log10 of the molar value.
Tests used:
solubility (qualitative) = assay type: physicochemical; conditions: CF3 next to aniline, difficulties in forming salt
hA1 receptor = target: T1, hA1 receptor (Homo sapiens, UniProt P30542); assay: radioligand binding to human A1 receptors, CHO-K1 membranes, [3H]DPCPX; conditions: average of duplicate experiments
T1 sequence (P30542 1-326): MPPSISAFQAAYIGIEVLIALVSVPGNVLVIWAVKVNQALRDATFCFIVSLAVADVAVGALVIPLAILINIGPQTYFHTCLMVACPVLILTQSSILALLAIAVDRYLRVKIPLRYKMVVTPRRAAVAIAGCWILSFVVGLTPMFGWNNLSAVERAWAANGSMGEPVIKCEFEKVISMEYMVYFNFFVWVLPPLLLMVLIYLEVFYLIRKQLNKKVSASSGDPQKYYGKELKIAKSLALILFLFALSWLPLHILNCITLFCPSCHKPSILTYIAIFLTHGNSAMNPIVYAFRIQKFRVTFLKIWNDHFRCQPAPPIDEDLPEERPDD
Protocol: The radioligand-binding assays for adenosine receptors were performed at Eurofins Discovery Services (Panlabs, Taiwan). Briefly, stock solutions of the compounds were prepared in DMSO and further diluted with the incubation buffer to the desired concentration. Final DMSO concentrations in the assay were 1.0%. For adenosine A1 screening, a 10 μg aliquots of membrane preparations from human recombinant CHO-K1 cells stably expressing A1 receptors (CHO-K1-hA1AR clone3, EPDST, R200510) were incubated with 1 nM [^3H]DPCPX in incubation buffer (20 mM HEPES, pH 7.4, 10 mM MgCl2, 100 mM NaCl 1.40 nM) for 90 min at 25 °C. Nonspecific binding was estimated in the presence of 100 μM R(-)-PIA. Membranes were filtered and washed 3 times and the filters were counted to determine specifically bound [^3H]DPCPX. Chemical compounds were screened at 10 μM. For A2A screening, membrane preparations from human recombinant HEK-293 cells stably expressing A2A receptors (PerkinElmer, RBHA2AM) were incubated with 0.05 μM [^3H]CGS-21680 in incubation buffer (50 mM Tris-HCl, pH 7.4, 10 mM MgCl2, 1 mM EDTA, 2 U/mL Adenosine Deaminase) for 90 min at 25 °C. Nonspecific binding was estimated in the presence of 50.0 μM NECA. Membranes were filtered and washed 3 times and the filters were counted to determine [^3H]CGS-21680 specifically bound. For A2B screening, membrane preparations from human recombinant HEK-293 cells stably expressing A2B receptors (PerkinElmer, ES-013-M) were incubated with 1.6 nM [^3H]MRS1754 in incubation buffer (50 mM Tris-HCl, pH 6.5, 5 mM MgCl2, 1 mM EDTA, 0.01 % Bacitracin) for 90 min at 25 °C. Nonspecific binding was estimated in the presence of 100 μM NECA. Membranes were filtered and washed 3 times and the filters were counted to determine [^3H]MRS1754 specifically bound. For A3 screening, membrane preparations from human recombinant CHO-K1 cells stably expressing A3 receptors (PerkinElmer, ES-012-M) were incubated with 0.5 nM [^125I]AB-MECA in incubation buffer (25 mM HEPES, pH 7.4, 5 mM MgCl2, 1 mM CaCl2, 0.1 % BSA) for 60 min at 25 °C. Nonspecific binding was estimated in the presence of 1.0 μM IB-MECA.
IC50 values were determined by a nonlinear, least-squares regression analysis using MathIQ^TM (ID Business Solutions Ltd., Guildford, UK). Where inhibition constants (Ki) were presented, the Ki values were calculated using Cheng and Prusoff equation [18] using the observed IC50 of the compound, the concentration of radioligand employed in the assay, and the historical values for the KD of the ligand (obtained experimentally at Eurofins Panlabs, Inc.). The Hill coefficient (nH), which defines the slope of the competitive binding curve, was calculated using MathIQ^TM.

hA2A receptors = target: T2, hA2A receptors (Homo sapiens, UniProt P29274); assay: radioligand binding to human A2A receptors, HEK-293 membranes; conditions: average of duplicate experiments
T2 construct: purchased PerkinElmer RBHA2AM
T2 sequence (P29274 whole entry): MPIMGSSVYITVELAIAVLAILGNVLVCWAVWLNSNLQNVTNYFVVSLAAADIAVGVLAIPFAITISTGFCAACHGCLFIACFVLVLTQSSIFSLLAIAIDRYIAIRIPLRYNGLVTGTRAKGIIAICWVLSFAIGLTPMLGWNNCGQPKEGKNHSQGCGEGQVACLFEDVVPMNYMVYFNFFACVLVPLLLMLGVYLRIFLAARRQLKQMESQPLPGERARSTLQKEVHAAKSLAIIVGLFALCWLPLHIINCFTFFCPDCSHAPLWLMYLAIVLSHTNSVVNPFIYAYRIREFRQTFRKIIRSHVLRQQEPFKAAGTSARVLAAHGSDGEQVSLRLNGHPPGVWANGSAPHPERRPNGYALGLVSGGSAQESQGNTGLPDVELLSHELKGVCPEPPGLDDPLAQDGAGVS
Protocol: The binding affinities of synthesized compounds to human A2A receptors (hA2AR) were measured by assessing competitive binding of ligands to radioligand […] using membrane preparations of human recombinant HEK-293 cells expressing human A2A receptors.
The radioligand-binding assays for adenosine receptors were performed at Eurofins Discovery Services (Panlabs, Taiwan). Briefly, stock solutions of the compounds were prepared in DMSO and further diluted with the incubation buffer to the desired concentration. Final DMSO concentrations in the assay were 1.0%. […] Nonspecific binding was estimated in the presence of 100 μM R(-)-PIA. Membranes were filtered and washed 3 times and the filters were counted to determine specifically bound [^3H]DPCPX. Chemical compounds were screened at 10 μM. […] Nonspecific binding was estimated in the presence of 50.0 μM NECA. […] Nonspecific binding was estimated in the presence of 100 μM NECA. Membranes were filtered and washed 3 times and the filters were counted to determine [^3H]MRS1754 specifically bound. […] Nonspecific binding was estimated in the presence of 1.0 μM IB-MECA.
IC50 values were determined by a nonlinear, least-squares regression analysis using MathIQ^TM (ID Business Solutions Ltd., Guildford, UK). […] The Hill coefficient (nH), which defines the slope of the competitive binding curve, was calculated using MathIQ^TM.

[1] = metabolic stability in cryopreserved human hepatocytes
Protocol: (§1) Metabolic stability of 11o was determined in cryopreserved hepatocytes from mice, rats, dogs, monkeys and human according to the SOPs of Frontage Laboratories Inc. Briefly, cryopreserved hepatocytes for pre-clinical animals and for human (BioIVT, Westbury, NY, USA) were thawed in a 37 °C water bath with gentle shaking until ice had almost melted. The suspensions were immediately transferred to a centrifuge tube (50 mL) containing pre-warmed thawing media at 37 °C with gentle handshaking to prevent the cells from settling. Cell suspensions were centrifuged at 50× g and 4 °C for 5 min. The supernatant was discarded and the pellets were resuspended in prewarmed incubation media (5 mL) at 37 °C. The percentage of viable cells in the suspension was determined by Trypan blue staining method to ensure viability of ≥70 %. […] The samples were centrifuged and aliquots of the supernatant were analyzed for parent compounds by LC/MS/MS using suitable multiple reaction monitoring (MRM) transitions. […] The disappearance of 11o and midazolam was monitored by LC/MS/MS (MRM) analysis of the hepatocyte extracts at each time point. The peak area ratio of the analyte to internal standard was obtained for each sample and the rate of disappearance of 11o was assessed by comparing the peak area ratios at various time points to the peak area ratio obtained at t = 0. The t1/2 is obtained (using the linear portion of semi-log plot of the area ratio vs. time) and the CLint values determined using well-stirred model.

[2] = metabolic stability in cryopreserved monkey hepatocytes
Protocol: as §1

[3] = metabolic stability in cryopreserved mouse hepatocytes
Protocol: as §1

[4] = metabolic stability in cryopreserved rat hepatocytes
Protocol: as §1

[5] = metabolic stability in cryopreserved dog hepatocytes
Protocol: as §1

| SMILES | solubility (in words) (solubility (qualitative)) | pKi (hA1 receptor) | pKi (hA2A receptors) | Intrinsic Clearance ([1]; human hepatocytes, midazolam 0.2 μM) | half-life at 0.2 μM ([1]; human, hepatocytes) | Intrinsic Clearance ([2]; monkey hepatocytes, midazolam 0.2 μM) | half-life at 0.2 μM ([2]; monkey, hepatocytes) | half-life at 0.2 μM ([3]; CD-1, mouse, hepatocytes) | Intrinsic Clearance ([3]; mouse hepatocytes, midazolam 0.2 μM) | half-life at 0.2 μM ([4]; Sprague Dawley, rat, hepatocytes) | Intrinsic Clearance ([4]; rat hepatocytes, midazolam 0.2 μM) | half-life at 0.2 μM ([5]; beagle, dog, hepatocytes) | Intrinsic Clearance ([5]; dog hepatocytes, midazolam 0.2 μM) |
| --- | --- | --- | --- | --- | --- | --- | --- | --- | --- | --- | --- | --- | --- |
| N#Cc1cccc(-c2nc(N)nc3c2cnn3Cc2ccc(N)c(C(F)(F)F)c2)c1F [11x, 3-(6-Amino-1-(4-amino-3-(trifluoromethyl)benzyl)-1H-pyrazolo[3,4-d]pyrimidin-4-yl)-2-fluorobenzonitrile] | greatly reduced solubility | 7.48 | 8.57 |  |  |  |  |  |  |  |  |  |  |
| Cc1ncc2n1-c1ccc(Cl)cc1C(c1ccccc1F)=NC2 [Midazolam, reference compound] |  |  |  | 0.0101 mL/min/10^6 Cells | 68.3 min | 0.0192 mL/min/10^6 Cells | 36 min | 49.9 min | 0.0139 mL/min/10^6 Cells | 21.9 min | 0.0317 mL/min/10^6 Cells | 32.8 min | 0.0211 mL/min/10^6 Cells |
